Where two headings read alike, the source gives them in different places.
How the values were obtained:
[1] = target: T1, human serum albumin (HSA) (Homo sapiens, UniProt P02768); test: fluorescence polarization displacement of dansyl sarcosine; format: binding
[2] = target: T1, human serum albumin (HSA); test: as above; format: binding; remark: listed apart in the source

T1 sequence (P02768 25-609): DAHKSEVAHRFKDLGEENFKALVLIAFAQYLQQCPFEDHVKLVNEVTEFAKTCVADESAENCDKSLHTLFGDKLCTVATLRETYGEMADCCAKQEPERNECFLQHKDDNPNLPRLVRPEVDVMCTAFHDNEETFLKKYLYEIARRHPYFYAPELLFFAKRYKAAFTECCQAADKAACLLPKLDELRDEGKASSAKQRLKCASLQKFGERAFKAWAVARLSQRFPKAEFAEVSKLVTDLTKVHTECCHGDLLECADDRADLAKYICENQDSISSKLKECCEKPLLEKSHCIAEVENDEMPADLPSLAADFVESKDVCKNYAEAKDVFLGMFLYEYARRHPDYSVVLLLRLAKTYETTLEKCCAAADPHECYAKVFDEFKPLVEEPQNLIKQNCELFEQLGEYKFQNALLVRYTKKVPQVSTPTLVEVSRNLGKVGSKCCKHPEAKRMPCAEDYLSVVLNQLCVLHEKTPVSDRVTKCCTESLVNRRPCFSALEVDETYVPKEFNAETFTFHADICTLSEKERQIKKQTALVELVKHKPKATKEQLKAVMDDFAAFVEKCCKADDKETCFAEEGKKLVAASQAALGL

CC1(C)CCC(c2ccc(Cl)cc2)=C(CN2CCN(c3ccc(C(=O)NS(=O)(=O)c4ccc(N[C@H](CCN5CCOCC5)CSc5ccccc5)c(S(=O)(=O)C(F)(F)F)c4)cc3)CC2)C1 [ABT-263]
IC50 [1]: 37 µM

CN(C)CC[C@H](CSc1ccccc1)Nc1ccc(S(=O)(=O)NC(=O)c2ccc(N3CCN(Cc4ccccc4-c4ccc(Cl)cc4)CC3)cc2)cc1[N+](=O)[O-] [ABT-737]
IC50 [2]: 711 µM
